Test results reported in publication PMC2951136 (Journal of neurochemistry, 2009).

Target: human dopamine transporter (hDAT) (Homo sapiens, UniProt Q01959)
Assay: live-cell confocal imaging of ASP+ accumulation in hDAT-transfected EM4 cells
Type: cell-based

Chain of human dopamine transporter (hDAT) (Q01959 whole entry): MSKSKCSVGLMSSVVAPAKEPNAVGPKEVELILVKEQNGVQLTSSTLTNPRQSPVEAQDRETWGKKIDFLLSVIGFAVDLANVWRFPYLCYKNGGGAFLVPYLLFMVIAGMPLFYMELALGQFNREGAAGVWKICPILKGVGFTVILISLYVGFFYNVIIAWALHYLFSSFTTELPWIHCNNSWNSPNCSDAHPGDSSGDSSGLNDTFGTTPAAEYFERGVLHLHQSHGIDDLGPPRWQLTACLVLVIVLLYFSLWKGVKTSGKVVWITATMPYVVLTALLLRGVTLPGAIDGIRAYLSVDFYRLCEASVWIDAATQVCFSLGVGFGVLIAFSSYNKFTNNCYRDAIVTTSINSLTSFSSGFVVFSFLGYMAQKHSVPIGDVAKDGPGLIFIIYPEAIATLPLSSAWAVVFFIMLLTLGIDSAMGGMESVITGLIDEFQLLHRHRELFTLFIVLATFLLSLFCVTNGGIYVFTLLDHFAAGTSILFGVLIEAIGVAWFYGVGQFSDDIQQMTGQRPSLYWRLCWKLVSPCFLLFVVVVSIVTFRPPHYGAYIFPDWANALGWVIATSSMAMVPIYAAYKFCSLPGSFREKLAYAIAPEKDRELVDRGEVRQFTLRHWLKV

## CCCCC/C=C\C/C=C\C/C=C\C/C=C\CCCC(=O)NCCO [AEA, anandamide]
  IC50: 3.2 ± 0.8 µM
